The test system of series [1] is mouse tumor model. The experiment in a line: EC50 / maximum tolerated dose studies in mice. Conditions: FIG. 4A/4B. Type of series: in vivo. The method, then:
(§1) Half-maximal effective concentration (EC50) studies were undertaken to examine the difference between mice and rats administered talabostat alone (FIG. 4A) and mice and rats administered the therapeutic conjugates comprising talabostat (FIG. 4B). When talabostat is administered alone, the talabostat maximum tolerated dose (MTD) is about 3 mg/m^2 in a mouse tumor model and 0.18 mg/m^2 in rats. That is, the talabostat MTD is 1/17 the tumor model EC50 (FIG. 4A). […] Talabostat, as part of the therapeutic conjugate, can be administered to rats and mice at therapeutically effective doses.

For series [2], the system named is rats. The series is described as follows: EC50 / maximum tolerated dose studies in rats. It is filed as in vivo, rat. Conditions: talabostat administered alone, FIG. 4A. How it is done:
as §1

Series [3] deals with J774A.1 mouse macrophage cell line cells. The experiment in a line: LDH release (pyroptosis) in J774A.1 cells with or without rhFAPα. It is filed as cell-based. The note with it: serial 10-fold dilutions, rhFAPα 25 nM, 24 hours, FIG. 17. How it is done: In further in vitro studies, several conjugates were tested for their ability to induce pyroptosis in J774 cells in the absence and presence of FAPα. Briefly, J774A.1 mouse macrophage cell line cells were cultured in triplicate wells with serial 10-fold dilutions of either VbP (data not shown) or one of the FAP-activated I-DASH inhibitors (Hu IgG1 Fc-6325, Hu IgG1-6325, MSA-6325, SQT-Gly V.2-6325, SQT-Gly CF-6325 or SQT-Gly CG-6325) in the presence or absence of rhFAPα at a final concentration of 25 nM for 24 hours. Each experiment included an untreated control. Following the incubation, the levels of lactate dehydrogenase (LDH, a marker of pyroptosis) released into culture supernatants were measured using the CytoTox 96 Non-radioactive Cytotoxicity Assay according to the manufacturer's instructions. The results are shown in FIG. 17 as fold-increase in LDH release.
(LDH leaks from cells whose membrane has failed.)

For series [4], the system named is G-CSF. The note with it: mouse, in vivo; cited from earlier work.

Regarding `CC(C)[C@H](N)C(=O)N1CCC[C@H]1B(O)O` [talabostat, Val-boroPro], the “maximum tolerated dose (MTD)” value in series [1] is given as “about 3 mg/m^2”; in series [2] (rats), 0.18 mg/m^2. Also, the “MTD as fraction of the tumor model EC50” value in series [2] is given as 1/17. Besides, the “differentiation of fold-increase in LDH release with vs without FAPα” value in series [3] is listed as “not the case”. Further, the “serum G-CSF response” value in series [4] is given as “large serum G-CSF response”.

Values taken from patent US20230381330A1, “ENZYME-ACTIVATED SERUM EXTENDED HALF-LIFE THERAPEUTIC CONJUGATES” (Avacta Life Sciences Limited, priority 2020, published 2023).
